Read-outs that look alike come from different tables or passages of the source.
What was measured:
[1] = Multiple ascending dose (MAD) study, pharmacokinetics in human subjects; assay type: in vivo
Procedure: The mean AUC0-tau ss (% CV) (135 μg·h/mL (20)) and Cmaxss (% CV) (9488 ng/ml (17)) was determined at the steady state day 8 in case 135 mgs. The mean AUC0-tau ss (% CV) (299 μg·h/mL (21) and Cmaxss(% CV) (17200 ng/ml (18) was determined at the steady state day 8 in case 270 mgrs.
Across all ascending dose studies in humans the increase in dose is linearly related to the increase in AUC. Because of the inter subject variability in clearance it is required to select a start dose which is not excessively above the 200 μg·h/mL target AUCs.
The PK data from the MAD study was used to generate a start dose which is most likely no cause toxicity or adverse events in subjects. A dose of 150 mg was chosen as it would give a geometric mean AUCtau of 167 μg·h/mL SD 33 with a 95% confidence interval of 102-232 μg·h/mL. At this dose approximated 75% of patients will be below 200 μg·h/mL and it is unlikely that any patient will exceed 240 μg·h/mL.

[2] = biological target: T1, mitochondrial pyruvate carrier (MPC) (Homo sapiens, UniProt O95563+Q9Y5U8); assay: BRET assay of MPC inhibitory activity in HEK cells expressing MPC2-Rluc8 and MPC1-Venus; assay type: cell-based
T1 construct: expressed in transfected cells
T1 sequence (O95563 1-127): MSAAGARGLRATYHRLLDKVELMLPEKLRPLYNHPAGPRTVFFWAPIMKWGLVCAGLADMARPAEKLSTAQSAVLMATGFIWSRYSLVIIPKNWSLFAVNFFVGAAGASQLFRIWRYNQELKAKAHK
T1 sequence (Q9Y5U8 1-109): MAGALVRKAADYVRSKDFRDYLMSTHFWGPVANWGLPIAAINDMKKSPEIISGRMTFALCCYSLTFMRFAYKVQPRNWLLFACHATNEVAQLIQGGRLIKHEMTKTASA
Procedure: The MPC is a heterodimer composed of two subunits, MPC1 and MPC2. MPC1 and MPC2 interact to form an active carrier. In the assay, MPC2 was fused to Rluc8 (Donor) and MPC1 to Venus (Acceptor). These chimeric proteins were stably expressed in HEK cells. BRET activity was measured following addition of coelenterazine in the culture medium. Coelenterazine enters into cells and in contact with luciferase Rluc8 emits light, which activates the emission of fluorescence by the Acceptor, provided the distance between the Donor and Acceptor is <[…]. If the distance between Donor and Acceptor is >[…], no BRET activity is measured. The level of BRET activity reflects a change in the conformation of the MPC: it is high when the carrier is in a closed conformation, low when the carrier is at rest and intermediary when it transports pyruvate. In this case, the BRET activity is the mean value between the BRET value when the carrier is at rest (Maximal distance between Donor and Acceptor) and the BRET value when it is closed (Shortest distance between Donor and Acceptor)
A wide range of concentrations of each of the tested compounds was used from 1 nM to 100 μM.

[3] = system: HeLa cells; assay: Seahorse oxygen consumption rate (OCR) in HeLa cells; assay type: cell-based; details: Homo sapiens, 1 h incubation at 37° C.
Procedure: (§1) To determine whether Compound (1) HCl has any effect on pyruvate-mediated mitochondrial respiration, the extracellular flux analyzer Seahorse was used as described in Compan et al. Seahorse experiments were performed in the following cell lines: HeLa (Cervix cancer cells), A549 (lung cancer cells), wild type MDA MB 231, and MDA MB 231 in which MPC2 has been deleted, leading to inactivation of the MPC (MDA MB231 KO). MDA MB231 cells are epithelial breast cancer cells. Cells were incubated with increasing concentrations of the compounds for one hour at 37° C. before oxygen consumption rate (OCR) measurements. The Seahorse analyzer allowed to measure basal and maximal respiration measured upon depolarization with 1 μM CCCP. Effects of Compound (1) HCl on oxygen consumption rates (OCR) in HeLa cells (FIG. 3A) and A549 cells (FIG. 3B) in a representative experiment of n=3. OCR values are expressed as ratios of OCR in the presence of different concentrations of compounds over the OCR in PBS alone.

[4] = system: A549 cells; assay: Seahorse oxygen consumption rate (OCR) in A549 cells; assay type: cell-based; details: Homo sapiens, 1 h incubation at 37° C.
Procedure: as §1

[5] = system: wild type MDA MB231 cells; assay: Seahorse oxygen consumption rate (OCR) in wild type MDA MB231 cells; assay type: cell-based
Procedure: as §1, with “CCCP. […] The KO cells have been deleted” for “CCCP. Effects”, “of the MPC2 gene” for “of Compound (1) HCl on oxygen consumption rates (OCR) in HeLa cells (FIG. 3A)”, “and therefore they display no MPC activity. The top panel show” for “and A549 cells (FIG. 3B) in”, “of either wild type (WT) or KO cell lines. […]” for “of n=3.”, “of the tested compound” for “of compounds”

[6] = system: MDA MB231 KO cells; assay: Seahorse oxygen consumption rate (OCR) in MDA MB231 KO cells (MPC2 deleted); assay type: cell-based; details: MPC activity genetically deleted
Procedure: as §1, with “CCCP. […] The KO cells have been deleted” for “CCCP. Effects”, “of the MPC2 gene” for “of Compound (1) HCl on oxygen consumption rates (OCR) in HeLa cells (FIG. 3A)”, “and therefore they display no MPC activity. The top panel show” for “and A549 cells (FIG. 3B) in”, “of either wild type (WT) or KO cell lines. […]” for “of n=3.”, “of the tested compound” for “of compounds”

[7] = system: adiponectin; assay: Plasma adiponectin by ELISA in Sprague Dawley rats as a measure of PPAR gamma engagement; assay type: in vivo, rat; details: 7 days, 54 mg/Kg/day, plasma 1 h after last administration, vs vehicle p<0.0001
Procedure: Evaluation of effect of Compound (1) HCl on adiponectin was performed in Sprague Dawley wild type rats as a measure of PPAR gamma engagement. The rats were treated for 7 days with increasing doses of Compound (1) HCl at 54 mg/Kg/day. Plasma were obtained at 1 h after the last Compound (1) HCl administration. Adiponectin levels were measured by ELISA. Results were represented as mean+standard error of the mean of n=8. Data were analyzed by Kruskal-Wallis followed by the Dunn post-hoc test versus the vehicle group (****, p<0.0001).

[8] = system: MCD diet fed C57BL6/J mice; assay: 7-week Methionine Choline Deficient (MCD) diet NASH mouse model; assay type: in vivo
Procedure: The preventive effects of Compound (1) HCl was evaluated in a 7-week Methionine Choline Deficient (MCD) diet NASH mouse model (Verdelho Machado et al.). After the acclimation period, C57BL6/J male mice (n=20) were weighed and randomized into 2 homogenous treatment groups based on body weight (n=10/group), put on a MCD diet, and treated BID orally with vehicle or Compound (1) HCl for 7 weeks. Compound (1) HCl was dosed 62.5 mg/kg BID orally by gavage. […] Body weight was measured 3 times/week until the end of the experimental phase. At 7 weeks of diet/treatment, mice were weighed and treated at ˜08:00 am in the morning, then bled (maximal volume/EDTA) at […]. Plasma was then immediately isolated and stored at −80° C. prior to assay plasma ALT and AST. The plasma volume left over was stored at −80° C. for eventual additional analysis. After blood collection, the mice were sacrificed by cervical dislocation under isoflurane anesthesia and exsanguinated with sterile saline. A NAFLD scoring system (NAS) adapted from Kleiner et al. (Hepatology. 41(6):1313-1321 (2005)) using the criteria described in the Table 2 below: Several other histopathological observations described in clinical human cases and originally reported in the NAS scoring system published by Kleiner et al. were not observed in this animal study, such as lipogranuloma, acidophil bodies, megamitochondria, and pigmented macrophages. Therefore, it was elected not to include them in the scoring system described above. An individual mouse NAS total score was calculated for each animal by summing up the score for (1) hepatocellular steatosis, (2) liver inflammation, (3) lobular fibrosis, and (4) hepatocyte ballooning. Histology analysis was performed (oil red 0, H&E and Sirius Red staining) for NAFLD scoring system (NAS) for liver steatosis, inflammation, fibrosis and hepatocyte ballooning.

**Q.** Which results are given for `CC(O)c1ccc(CCOc2ccc(CC3SC(=O)NC3=O)cc2)nc1.Cl` (stereo not drawn) [Compound (1) HCl, 5-[[4-[2-[5-(1-hydroxyethyl)pyridin-2-yl]ethoxy]phenyl]methyl]-1,3-thiazolidine-2,4-dione hydrochloride]?
**A.** change in clearance with time ([1]; human subjects, 135 mg and 270 mg): no change in clearance with time; mean Cmaxss ([1]; human subjects, 135 mg, steady state day 8): 9488 ng/mL; mean Cmaxss ([1]; human subjects, 270 mg, steady state day 8): 17200 ng/mL; AUC ([1]; human, plasma, oral, start dose 150 mg, generated from MAD PK data, SD 33, 95% CI 102-232, read-out: geometric mean AUCtau): 167 µg·h/mL; AUC ([1]; in vivo, human subjects, 135 mg, steady state day 8, read-out: mean AUC0-tau ss): 135 µg·h/mL; AUC ([1]; in vivo, human subjects, 270 mg, steady state day 8, read-out: mean AUC0-tau ss): 299 µg·h/mL; Cmin ss associated with the target AUC0-tau ss ([1]; line of best fit of day 8 MAD data, target AUC0-tau ss 200 μg·h/mL): 5716 ng/mL; IC50 ([2]; BRET assay, HEK cells, read-out: IC50 MPC inhibitory activity): 4.1 µM; IC50 [3]: ~5 µM; IC50 [4]: ~5 µM; effect on oxygen consumption [5]: inhibits oxygen consumption in a MPC dependent manner; effect on oxygen consumption [6]: does not inhibit oxygen consumption; plasma adiponectin levels [7]: significantly increased; hepatic cholesterol levels ([8]; 62.5 mg/kg BID orally, 7 weeks): did not show a change; body weight loss ([8]; 62.5 mg/kg BID orally, day 14 to day 50): less severe decline in body weight loss; liver inflammation ([8]; 7 weeks): total disappearance of inflammation; oil red o staining % ([8]; 7 weeks, vs vehicle p<0.001): extremely low; steatosis score ([8]; 7 weeks, vs vehicle p<0.001): blunted steatosis score

**Q.** With `CC(O)c1ccc(CCOc2ccc(CC3SC(=O)NC3=O)cc2)nc1` (stereo not drawn) [Compound (1), 5-[[4-[2-[5-(1-hydroxyethyl)pyridin-2-yl]ethoxy]phenyl]methyl]-1,3-thiazolidine-2,4-dione] as the compound, how does the linearity of pharmacokinetics ([1]; humans) read?
**A.** Its linearity of pharmacokinetics is “linear pharmacokinetics”.

**Q.** What about the oral bioavailability ([1]; humans) of the same compound?
**A.** Its oral bioavailability is “orally bioavailable”.

**Q.** With `CN(CCOc1ccc(CC2SC(=O)NC2=O)cc1)c1ccccn1` (stereo not drawn) [Rosiglitazone, rosiglitazone, reference compound] as the compound, how does the IC50 [2] read?
**A.** The IC50 was 2 µM.

Reference: US20210308113A1, “METHOD OF ADMINISTERING A […] EFFECTIVE AMOUNT OF 5-[[4-[2-[5-(1-HYDROXYETHYL)PYRIDIN-2-YL]ETHOXY]PHENYL]METHYL]-1,3-THIAZOLIDINE-2,4-DIONE” (MINORYX THERAPEUTICS S.L., priority 2018, published 2021)
